Source: US20260216085A1, “NANOPARTICLES TO ENHANCE THE EFFECTS OF DRUGS FOR THE TREATMENT OF CANCER” (UNIVERSIDAD DE GRANADA, priority 2022, published 2026)

Key:
[1] = Release kinetics / degradation of OLA and AA in PBS by UV-Vis; format: physicochemical; details: buffer, pH 7.4
Procedure: Briefly, 0.9 mg of NP was weighed into a quartz cuvette and then 3 mL of PBS solution (pH=7.4) was carefully added to the cuvette. The absorbance curve from 200 nm to 400 nm was measured continuously every half hour until the plateau was reached. The amount of OLA and ascorbic acid released was determined at wavelengths of 311 nm and 265 nm, respectively. This technique allowed simultaneous quantification of the two molecules by monitoring the absorbance at 311 nm (OLA) and 265 nm (AA) (FIG. 1).
All measurements were performed in triplicate.
The degradation of AA followed an exponential decay according to the equation y(t)=e^−t/τ, where τ corresponds to the half-life of the molecule.

[2] = system: PANC-1-induced tumors; assay: In vivo tumor growth and survival, mice with PANC-1-induced tumors; details: 25 mg/kg OLA intraperitoneally every 3 days, 10 cycles
Procedure: Male and female NOD scid gamma mice generated by the Centro de Instrumentación Científica of the University of Granada were used for the in vivo study. All mice (body weight: 20-25 g) were housed in cages with free access to water and food prior to the experiments and were maintained under controlled temperature, light and humidity (22.0±2° C., 12 h light-dark cycle and 40-70% relative humidity), in specific pathogen-free conditions with sterile atmosphere controlled by HEPA filters. The study was approved by the Ethical Committee for Animal Experimentation of the University of Granada (reference code: 16/01/2020/005) and was performed in accordance with its guidelines. Tumors were induced by subcutaneous injection of 9×10^5 cells derived from the PANC1 cell line into the right flank of NOD-SCID gamma mice. When the tumor was palpable, animals were randomly divided into four groups (n=8-10 mice per group, selecting the tumor-inducing mice): PANC1 mice treated with OLA solvent-(group I), OLA (group II), NP-ACP-AA (group III) and NP-ACP-OLA-AA (group IV). The OLA solvent was 5% DMSO, 40% PEG300, 5% Tween-80 and 50% saline and the NPs were dispersed in saline. […] Weights and deaths were carefully recorded throughout the period and tumor volume was measured with a digital caliper. Tumor volume (mm^3) was calculated as follows: V (mm^3)=(a×b2×π)/6. […]

[3] = system: PANC-1; assay: Cytotoxicity, Sulforhodamine B proliferation assay; format: cell-based, Human
Procedure: Human pancreatic ductal adenocarcinoma cell lines MIA PaCa-2 and PANC1 and the murine pancreatic cancer cell line Panc02 were used. All cell lines were cultured in Dulbecco's modified Eagle medium (DMEM) supplemented with 10% fetal bovine serum and 1% streptomycin penicillin (Sigma-Aldrich). Cells were maintained in monolayer culture in an atmosphere of 37° C. and 5% CO2 and passaged using 0.25% trypsin and 0.02% EDTA.
Panc02, PANC-1 and MIA PaCa-2 cell lines were treated with NP-ACP-OLA and NP-ACP-OLA-AA to determine their cytotoxic effect. The toxicity of NP-ACP and NP-ACP-AA (controls) was tested in all cell lines. For this, PANC-1 cells were seeded at densities of 8×10^3 cells/well and Panc02 and MIA PaCa-2 cells at densities of 2.5×10^3 cells/well in 48-well plates, incubated overnight and exposed to DMSO (OLA solvent), OLA (in different concentration ranges depending on the cell line used), NPs with and without OLA and ascorbic acid for 72 h. Subsequently, the cells were fixed with 10% trichloroacetic acid for 20 minutes and washed three times with distilled water. […] Finally, the optical density (OD) of the dye was measured with a Titertek Multiskan colorimeter (Flow) at 492 nm. Proliferation percentages (Pf %) were calculated as: Pf %=(OD of sample/OD of negative control)×100. […]

[4] = system: PANC-1 cell migration; assay: Cell migration assay; format: cell-based, Human; details: PANC-1, Cl25 of OLA, monitored 72 h
Procedure: PANC-1 cell migration is a phenomenon related to PARP1 inhibition. To study the effect of NP-ACP-OLA-AA with respect to free OLA and OLA-NPs, the following treatment was carried out with the PANC-1 cell line. NP-ACP-AA was used as a control.
The PANC- 1 cell line was seeded in a 12-well plate (Thermo Fisher) and grown to 95-100% confluence in medium supplemented with DMEM (Sigma-Aldrich). Then, a […] was manually performed using a pipette tip. The next day, dead cells were removed using phosphate buffered saline (PBS) and the culture medium was replaced with DMEM without FBS to prevent cell proliferation. Then, Cl25 of OLA concentration (free and OLA-NPs) was added to the wells and the cells were incubated for 72 h during which the migratory process was monitored using a DM-IL LED microscope. The percentage of migration was calculated by measuring the tumor cell free area at different times using ImageJ software with the Chemotaxis and Migration Tool add-on.

| time AA remained before being degraded ([1]; 10.5 ppm) [h] | half-life at 10.5 ppm [1] [h] | SMILES | decrease in tumor volume compared to untreated control mice [2] [%] | survival of mice [2] [%] | Cl50 in PANC-1 higher than in MIA PaCa-2 ([3]; PANC-1 vs MIA PaCa-2) [times] | Cl50 in PANC-1 higher than in Panc02 ([3]; PANC-1 vs Panc02) [times] | inhibition of cell migration compared to untreated cells [4] |
| --- | --- | --- | --- | --- | --- | --- | --- |
| ≤ 12 | 2.7 | O=C1O[C@H]([C@@H](O)CO)C(O)=C1O [AA, ascorbic acid] |  |  |  |  |  |
|  |  | O=C(c1cc(Cc2n[nH]c(=O)c3ccccc23)ccc1F)N1CCN(C(=O)C2CC2)CC1 [OLA, Olaparib] | 28.3 | 44 | 8.5 | 7.5 | inhibited migration only at 72 hours |
